Laboratory results taken from BindingDB's records for doi:10.1074/jbc.M809633200 (United States Army Medical Research Institute of Infectious …, 2009).

What follows are compounds tested against T1, Receptor-type tyrosine-protein phosphatase C (Homo sapiens, UniProt P08575) (assay: Phosphatase Activity Assay).
T1 sequence (P08575 whole entry): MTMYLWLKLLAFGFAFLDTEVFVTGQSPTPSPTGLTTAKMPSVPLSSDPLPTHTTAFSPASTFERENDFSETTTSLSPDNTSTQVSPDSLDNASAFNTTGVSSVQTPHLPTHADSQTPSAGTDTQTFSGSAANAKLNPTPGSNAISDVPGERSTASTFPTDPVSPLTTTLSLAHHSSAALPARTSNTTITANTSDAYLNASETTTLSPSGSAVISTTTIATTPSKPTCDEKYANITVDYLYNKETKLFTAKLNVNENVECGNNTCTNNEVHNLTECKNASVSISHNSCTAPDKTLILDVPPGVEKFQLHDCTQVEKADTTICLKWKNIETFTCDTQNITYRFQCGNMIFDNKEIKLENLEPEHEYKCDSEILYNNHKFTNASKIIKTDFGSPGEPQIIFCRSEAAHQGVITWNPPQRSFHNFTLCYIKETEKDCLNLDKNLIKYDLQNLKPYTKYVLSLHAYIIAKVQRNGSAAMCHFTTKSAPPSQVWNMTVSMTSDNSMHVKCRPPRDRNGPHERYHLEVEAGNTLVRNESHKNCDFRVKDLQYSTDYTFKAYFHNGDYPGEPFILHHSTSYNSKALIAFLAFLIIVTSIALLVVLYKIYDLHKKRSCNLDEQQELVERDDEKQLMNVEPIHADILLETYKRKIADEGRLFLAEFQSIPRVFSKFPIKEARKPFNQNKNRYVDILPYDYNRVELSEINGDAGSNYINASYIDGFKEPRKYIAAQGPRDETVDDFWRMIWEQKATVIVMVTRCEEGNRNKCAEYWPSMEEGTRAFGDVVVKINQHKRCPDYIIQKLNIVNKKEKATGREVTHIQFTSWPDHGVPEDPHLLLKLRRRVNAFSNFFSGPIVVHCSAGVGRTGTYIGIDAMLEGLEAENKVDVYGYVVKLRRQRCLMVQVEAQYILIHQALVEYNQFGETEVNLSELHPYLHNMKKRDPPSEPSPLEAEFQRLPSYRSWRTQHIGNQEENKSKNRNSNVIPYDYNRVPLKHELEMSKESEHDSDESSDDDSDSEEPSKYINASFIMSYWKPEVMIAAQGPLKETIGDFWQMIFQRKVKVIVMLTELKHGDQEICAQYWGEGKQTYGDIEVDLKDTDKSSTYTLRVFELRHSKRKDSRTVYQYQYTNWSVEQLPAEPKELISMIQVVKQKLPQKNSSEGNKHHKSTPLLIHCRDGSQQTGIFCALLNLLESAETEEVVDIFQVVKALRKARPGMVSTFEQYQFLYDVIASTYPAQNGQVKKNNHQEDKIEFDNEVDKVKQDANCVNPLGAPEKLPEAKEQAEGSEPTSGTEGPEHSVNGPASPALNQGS
Source text: Protein phosphatases were purchased from Upstate Biotechnology (Lake Placid, NY).

Compound	IC50
O=C1C(=O)c2ccccc2-c2ccccc21	300 nM
CC(C)(C)C(=O)Nc1ccc2c(c1)C(=O)C(=O)c1ccccc1-2 [N-(9,10-Dioxo-9,10-dihydro-phenanthrene-2-yl)-2,2-dimethyl-propionamide]	400 nM
O=C1C(=O)c2cccc([N+](=O)[O-])c2-c2ccccc21 [4-Nitro-phenanthrene-9,10 dione]	6000 nM
